Test results published in patent publication US6737383B1, “Herbicidal oxadiazolidines” (priority 1999, dated 2004).

What was measured:
bedstraw = assay: Test B pre/postemergence bedstraw; type: in vivo, Galium aparine; conditions: Postemergence
In short: (§1)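 Test chemicals in a non-phytotoxic solvent mixture with surfactant were sprayed preemergence onto planted seeds and postemergence onto plants 2 to 18 cm tall (1- to 4-leaf stage). After twelve to sixteen days in a greenhouse, injury was visually rated against untreated controls from 0 (no effect) to 10 (complete control).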

blackgrass = assay: Test B pre/postemergence blackgrass; type: in vivo, Alopecurus myosuroides
In short: as §1

surinam grass = assay: Test B pre/postemergence surinam grass; type: in vivo, Brachiaria decumbens
In short: as §1

cocklebur = assay: Test B pre/postemergence cocklebur; type: in vivo, Xanthium strumarium
In short: as §1

corn = assay: Test B pre/postemergence corn; type: in vivo, Zea mays
In short: as §1

crabgrass = assay: Test B pre/postemergence crabgrass; type: in vivo, Digitaria sanguinalis
In short: as §1

giant foxtail = assay: Test B pre/postemergence giant foxtail; type: in vivo, Setaria faberii
In short: as §1

morningglory = assay: Test B pre/postemergence morningglory; type: in vivo, Ipomoea hederacea
In short: as §1

pigweed = assay: Test B pre/postemergence pigweed; type: in vivo, Amaranthus retroflexus
In short: as §1

rape = assay: Test B pre/postemergence rape; type: in vivo, Brassica napus
In short: as §1

soybean = assay: Test B pre/postemergence soybean; type: in vivo, Glycine max
In short: as §1

sugar beet = assay: Test B pre/postemergence sugar beet; type: in vivo, Beta vulgaris
In short: as §1

velvetleaf = assay: Test B pre/postemergence velvetleaf; type: in vivo, Abutilon theophrasti
In short: as §1

wheat = assay: Test B pre/postemergence wheat; type: in vivo, Triticum aestivum
In short: as §1

wild oat = assay: Test B pre/postemergence wild oat; type: in vivo, Avena fatua
In short: as §1

purple nutsedge = assay: Test B pre/postemergence purple nutsedge; type: in vivo, Cyperus rotundus
In short: as §1

rice = assay: Test B flood test rice; type: in vivo, Oryza sativa
In short: (§2)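 Read-out is a visual response score from 0 (no effect) to 10 (complete control), assigned by comparison with untreated controls. Treatment was applied at the 2-leaf stage, and plants stayed in the greenhouse for twelve to sixteen days before scoring.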

smallflower flatsedge = assay: Test B flood test smallflower flatsedge; type: in vivo, Cyperus difformis
In short: as §2

duck salad = assay: Test B flood test duck salad; type: in vivo, Heteranthera limosa
In short: as §2

bamyardgrass = assay: Test B flood test barnyardgrass; type: in vivo, Echinochloa crus-galli
In short: as §2

[1] = Postemergence, Rate 62 g/ha, scale 0 to 10, 0 is no effect, 10 is complete control
[2] = Postemergence, Rate 125 g/ha, scale of 0 to 10 where 0 is no effect and 10 is complete control
[3] = Postemergence, Rate 250 g/ha, scale of 0 to 10, 0 is no effect, 10 is complete control
[4] = Postemergence, Rate 500 g/ha, scale of 0 to 10 where 0 is no effect and 10 is complete control
[5] = Preemergence, Rate 62 g/ha, scale 0 to 10 (0 no effect, 10 complete control)
[6] = Preemergence, Rate 125 g/ha, scale of 0 to 10 where 0 is no effect and 10 is complete control
[7] = Preemergence, Rate 500 g/ha, scale of 0 to 10 where 0 is no effect and 10 is complete control
[8] = Rate 62 g/ha, flood test species, Pre-emergence, visual evaluation after twelve to sixteen days
[9] = Rate 125 g/ha, under heading Pre-emergence, flood test species, visual evaluation after twelve to sixteen days
[10] = Rate 250 g/ha, Pre-emergence (flood test species), scale 0 to 10, 0 is no effect, 10 is complete control
[11] = Rate 500 g/ha, Pre-emergence section of Table B, 0 to 10 scale (0 no effect, 10 complete control)

C=C(Cn1c(=O)on(C(=O)N(c2ccccc2)C(C)C)c1=O)c1ccc(F)cc1 [Compound 606]
10: Plant response rating, Morningglory (morningglory; [2]) | Morningglory plant response rating (morningglory; [3])
1: Plant response rating, Blackgrass (blackgrass; [4]) | Redroot pigweed plant response rating (pigweed; [3]) | Plant response rating, Soybean (soybean; [1])
3: Blackgrass plant response rating (blackgrass; [7]) | Plant response rating, Crabgrass (crabgrass; [2]) | Crabgrass plant response rating (crabgrass; [3]) | Plant response rating, Giant foxtail (giant foxtail; [4]) | Rape plant response rating (rape; [3]) | Plant response rating, Velvetleaf (velvetleaf; [4]) | Plant response rating, Wild oats (wild oat; [7])
6: Giant foxtail plant response rating (giant foxtail; [6]) | Plant response rating, Morningglory (morningglory; [1])
0: Plant response rating, Bedstraw (bedstraw; Rate 62 g/ha, scale 0 to 10, 0 is no effect, 10 is complete control) | Bedstraw plant response rating (bedstraw; Rate 250 g/ha, scale of 0 to 10, 0 is no effect, 10 is complete control) | Plant response rating, Bedstraw (bedstraw; Rate 500 g/ha, scale of 0 to 10 where 0 is no effect and 10 is complete control) | Plant response rating, Blackgrass (blackgrass; [1]) | Plant response rating, Blackgrass (blackgrass; [2]) | Blackgrass plant response rating (blackgrass; [3]) | Blackgrass plant response rating (blackgrass; [5]) | Blackgrass plant response rating (blackgrass; [6]) | Blackgrass plant response rating (0 to 10 scale) (blackgrass; Preemergence, Rate 250 g/ha) | Plant response rating, B. signalgrass (surinam grass; [1]) | Plant response rating, B. signalgrass (surinam grass; [2]) | B. signalgrass plant response rating (surinam grass; [3]) | Plant response rating, B. signalgrass (surinam grass; [4]) | B. signalgrass plant response rating (surinam grass; [5]) | B. signalgrass plant response rating (surinam grass; [6]) | B. signalgrass plant response rating (0 to 10 scale, 0 is no effect, 10 is complete control) (surinam grass; Preemergence, Rate 250 g/ha) | B. signalgrass plant response rating (surinam grass; [7]) | Plant response rating, Cocklebur (cocklebur; [1]) | Plant response rating, Cocklebur (cocklebur; [2]) | Cocklebur plant response rating (cocklebur; [3]) | Plant response rating, Cocklebur (cocklebur; [4]) | Cocklebur plant response rating (cocklebur; [5]) | Cocklebur plant response rating (cocklebur; [6]) | Cocklebur plant response rating (0 to 10 scale) (cocklebur; Preemergence, Rate 250 g/ha) | Plant response rating, Cocklebur (cocklebur; [7]) | Plant response rating, Corn (corn; [1]) | Plant response rating, Corn (corn; [2]) | Corn plant response rating (corn; [3]) | Plant response rating, Corn (corn; [4]) | Corn plant response rating (corn; [5]) | Corn plant response rating (corn; [6]) | Corn plant response rating (0 to 10 scale) (corn; Preemergence, Rate 250 g/ha) | Plant response rating, Corn (corn; [7]) | Plant response rating, Crabgrass (crabgrass; [1]) | Crabgrass plant response rating (crabgrass; [5]) | Plant response rating, Giant foxtail (giant foxtail; [1]) | Plant response rating, Giant foxtail (giant foxtail; [2]) | Giant foxtail plant response rating (giant foxtail; [3]) | Giant foxtail plant response rating (giant foxtail; [5]) | Morningglory plant response rating (morningglory; [5]) | Morningglory plant response rating (morningglory; [6]) | Plant response rating, Morningglory (morningglory; [7]) | Plant response rating, Redroot pigweed (pigweed; [1]) | Plant response rating, Redroot pigweed (pigweed; [2]) | Redroot pigweed plant response rating (pigweed; [5]) | Redroot pigweed plant response rating (pigweed; [6]) | Plant response rating, Redroot pigweed (pigweed; [7]) | Rape plant response rating (rape; [5]) | Rape plant response rating (rape; [6]) | Plant response rating, Rape (rape; [7]) | Soybean plant response rating (soybean; [5]) | Soybean plant response rating (soybean; [6]) | Plant response rating, Soybean (soybean; [7]) | Plant response rating, Sugarbeets (sugar beet; [1]) | Plant response rating, Sugarbeets (sugar beet; [2]) | Sugarbeets plant response rating (sugar beet; [3]) | Plant response rating, Sugarbeets (sugar beet; [4]) | Sugarbeets plant response rating (sugar beet; [5]) | Sugarbeets plant response rating (sugar beet; [6]) | Plant response rating, Sugarbeets (sugar beet; [7]) | Plant response rating, Velvetleaf (velvetleaf; [1]) | Plant response rating, Velvetleaf (velvetleaf; [2]) | Velvetleaf plant response rating (velvetleaf; [3]) | Velvetleaf plant response rating (velvetleaf; [5]) | Velvetleaf plant response rating (velvetleaf; [6]) | Plant response rating, Velvetleaf (velvetleaf; [7]) | Plant response rating, Wheat (wheat; [1]) | Plant response rating, Wheat (wheat; [2]) | Wheat plant response rating (wheat; [3]) | Plant response rating, Wheat (wheat; [4]) | Wheat plant response rating (wheat; [5]) | Wheat plant response rating (wheat; [6]) | Plant response rating, Wheat (wheat; [7]) | Plant response rating, Wild oats (wild oat; [1]) | Plant response rating, Wild oats (wild oat; [2]) | Wild oats plant response rating (wild oat; [3]) | Plant response rating, Wild oats (wild oat; [4]) | Wild oats plant response rating (wild oat; [5]) | Wild oats plant response rating (wild oat; [6]) | Plant response rating, Nutsedge (purple nutsedge; [1]) | Plant response rating, Nutsedge (purple nutsedge; [2]) | Plant response rating, Nutsedge (purple nutsedge; [4]) | Nutsedge plant response rating (purple nutsedge; [5]) | Nutsedge plant response rating (purple nutsedge; [6]) | Plant response rating, Nutsedge (purple nutsedge; [7]) | Plant response rating, Rice (0 to 10 scale, 0 is no effect, 10 is complete control) (rice; [8]) | Rice plant response rating (0 to 10 scale, 0 is no effect, 10 is complete control) (rice; [9]) | Rice plant response rating (rice; [10]) | Rice plant response rating (rice; [11]) | Plant response rating, S. Flatsedge (0 to 10 scale, 0 is no effect, 10 is complete control) (smallflower flatsedge; [8]) | S. Flatsedge plant response rating (0 to 10 scale, 0 is no effect, 10 is complete control) (smallflower flatsedge; [9]) | S. Flatsedge plant response rating (smallflower flatsedge; [10]) | S. Flatsedge plant response rating (smallflower flatsedge; [11]) | Plant response rating, Ducksalad (0 to 10 scale, 0 is no effect, 10 is complete control) (duck salad; [8]) | Ducksalad plant response rating (0 to 10 scale, 0 is no effect, 10 is complete control) (duck salad; [9]) | Ducksalad plant response rating (duck salad; [10]) | Ducksalad plant response rating (duck salad; [11]) | Plant response rating, Barnyardgrass (0 to 10 scale, 0 is no effect, 10 is complete control) (bamyardgrass; [8]) | Barnyardgrass plant response rating (0 to 10 scale, 0 is no effect, 10 is complete control) (bamyardgrass; [9]) | Barnyardgrass plant response rating (bamyardgrass; [10]) | Barnyardgrass plant response rating (bamyardgrass; [11])
9: Plant response rating, Giant foxtail (giant foxtail; [7])
8: Plant response rating, Crabgrass (crabgrass; [7])
4: Plant response rating, Rape (rape; [4])
2: Plant response rating, Redroot pigweed (pigweed; [4]) | Plant response rating, Rape (rape; [2]) | Plant response rating, Soybean (soybean; [2]) | Soybean plant response rating (soybean; [3])
